“Also recorded” adds a separate entry of the source.
Assays:
adipocytes = experiment: sensitisation of adipocytes to beta 3 agonist: 4 hour pre-incubation, then BRL 37344 for a further hour, lipolysis; type: cell-based, mouse; conditions: for lipolytic effect of the beta 3 agonist after pre-incubation: 4 hour pre-incubation at varying concentrations, then 50 nanomolar BRL 37344 for a further hour
Description: Referring now to FIG. 2, an experiment was performed to determine whether hGH (FIG. 2A) or AOD 9604 (FIG. 2B) sensitises the adipocytes to the actions of the beta 3 agonists. First, the adipocytes were incubated with hGH or AOD 9604 at varying concentrations for four hours. The cells were then further incubated with a half-maximal concentration of BRL 37344 of 50 nanomolar for a further hour.

3T3-F442 cells = experiment: in vitro lipolysis (glycerol release), 1 hour incubation; type: cell-based, mouse; conditions: for shape of lipolytic dose response: 1 hour, varying concentrations, agent alone
Description: Referring now to FIG. 1, 3T3-F442 cells (an immortal mouse adipocyte cell line) were incubated for 1 hour with varying concentrations of the rodent beta 3 agonist BRL 37344. […] In a third sample, AOD 9604 and BRL 37344 were co-administered with varying concentrations of AOD 9604, together with the maximal concentration of 1 μM of the BRL 37344.

[1] = target: beta 3 adrenergic receptor (Mus musculus, UniProt P25962); experiment: agonism at the beta 3 adrenergic receptor
Chain of beta 3 adrenergic receptor (P25962 whole entry): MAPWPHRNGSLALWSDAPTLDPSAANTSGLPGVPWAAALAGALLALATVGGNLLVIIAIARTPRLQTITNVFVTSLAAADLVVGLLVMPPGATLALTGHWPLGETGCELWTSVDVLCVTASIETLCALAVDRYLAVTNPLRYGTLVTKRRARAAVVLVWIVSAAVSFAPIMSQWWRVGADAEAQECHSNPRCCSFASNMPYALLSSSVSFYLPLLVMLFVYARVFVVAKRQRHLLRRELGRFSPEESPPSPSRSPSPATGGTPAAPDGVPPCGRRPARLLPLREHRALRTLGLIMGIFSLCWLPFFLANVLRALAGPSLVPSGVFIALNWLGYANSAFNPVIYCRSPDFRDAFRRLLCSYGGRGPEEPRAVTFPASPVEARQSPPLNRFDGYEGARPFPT

ob/ob mice = experiment: fat mass after chronic treatment of ob/ob mice; type: in vivo
From the text: It is believed that the obesity reducing effect of AOD9604 is at least in part a result of this sensitisation to the lipolytic affects of endogenous catecholamines (ie. epinephrine). Accordingly, chronic co-administration of AOD9604 and a beta 3 agonist will enhance the anti-obesity action of either agent administered alone.

beta 3 messenger RNA [2] = experiment: beta 3 messenger RNA expression in adipocytes after four-hour incubation (PCR/RT-PCR, normalised to β-actin); type: cell-based, mouse; conditions: 4 hour incubation
Description: Referring now to FIG. 3, the effect of the four-hour incubation of the adipocytes with hGH (FIG. 3A) or AOD 9604 (FIG. 3B) at two concentrations on expression of beta 3 messenger RNA was assessed using PCR/RT-PCR analysis of the content of beta 3 messenger RNA, using β-actin to normalise the data.

beta 3 messenger RNA [3] = experiment: beta 3 messenger RNA expression after chronic treatment of ob/ob mice; type: in vivo; conditions: versus control ob/ob mice
C57Bl/6J (Ob/Ob) mouse = conditions: by injection; cited from earlier work

With `C[C@H](Cc1ccc(OCC(=O)O)cc1)NC[C@H](O)c1cccc(Cl)c1` [BRL 37344] the EC50 (adipocytes; adipocytes, read-out: half-maximal concentration (lipolysis)) was 50 nM, the “concentration giving maximal lipolytic effect” value (3T3-F442 cells; 1 hour incubation) was 1 µM and the “maximal effect, glycerol released” value (3T3-F442 cells; 1 hour incubation, at 1 μM) was “approximately 6 μM per milligram protein”. For the same compound, the “shape of lipolytic dose response” value (3T3-F442 cells) was “sigmoid-shaped dose response”.

For Tyr-hGH 177-191 [AOD9604], the “agonist activity at the beta 3 adrenergic receptor” value [1] was “not an agonist”, the “fat mass of the treated animals” value (ob/ob mice) was “significant reduction” and the “expression of beta 3 messenger RNA” value (beta 3 messenger RNA [2]) was “increase”. The “beta 3 messenger RNA in brown adipocytes” value (beta 3 messenger RNA [3]; 0.25 mg/kg/day for 14 days) was “increase”, the “beta 3 messenger RNA in white adipocytes” value (beta 3 messenger RNA [3]; 0.25 mg/kg/day for 14 days) was “increase” and the “lipolytic effect of the beta 3 agonist after pre-incubation” value (adipocytes) was “synergistic effect; also recorded: enhanced”. For the same compound, the “shape of lipolytic dose response” value (3T3-F442 cells) was “bell-shaped acute lipolytic response”.

In the case of “hGH 177-191: synthetic peptide corresponding to amino acid residues 177-191 of the human growth hormone sequence (LRIVQCRSVEGSCGF; UniProt P01241 203-217, looked up, fragment)”, the adipose tissue mass (C57Bl/6J (Ob/Ob) mouse) is listed as “reduce” and the body weight gain (C57Bl/6J (Ob/Ob) mouse) is listed as “reduce”.

For hGH: human growth hormone, the “beta 3 messenger RNA in brown adipocytes” value (beta 3 messenger RNA [3]; 1.0 mg/kg/day for 14 days) was “increase”, the “beta 3 messenger RNA in white adipocytes” value (beta 3 messenger RNA [3]; 1.0 mg/kg/day for 14 days) was “increase” and the “lipolytic effect of the beta 3 agonist after pre-incubation” value (adipocytes) was “synergistic effect; also recorded: enhanced”.
